This is an account of results in ChEMBL document CHEMBL1131849, “Synthesis and biological characterization of sqbazide, a novel biotinylated photoaffinity probe for the study of the human platelet thromboxane A2 receptor” (Bioorg Med Chem Lett, 1999).

The source made the active and inactive calls. No cut-off for these calls is given here.

The species entered for assay [1] is Homo sapiens. Nature of the assay: Tested for inhibition of platelet aggregation induced by ADP; Inactive. The class given is functional, organism-based.
For assay [2], the species on record is Homo sapiens. Nature of the assay: Inhibitory activity against human platelet aggregation. It is filed as functional, organism-based.
The target of a further assay is T1, Thromboxane A2 receptor (Homo sapiens, UniProt P21731).
T1 sequence (P21731 whole entry): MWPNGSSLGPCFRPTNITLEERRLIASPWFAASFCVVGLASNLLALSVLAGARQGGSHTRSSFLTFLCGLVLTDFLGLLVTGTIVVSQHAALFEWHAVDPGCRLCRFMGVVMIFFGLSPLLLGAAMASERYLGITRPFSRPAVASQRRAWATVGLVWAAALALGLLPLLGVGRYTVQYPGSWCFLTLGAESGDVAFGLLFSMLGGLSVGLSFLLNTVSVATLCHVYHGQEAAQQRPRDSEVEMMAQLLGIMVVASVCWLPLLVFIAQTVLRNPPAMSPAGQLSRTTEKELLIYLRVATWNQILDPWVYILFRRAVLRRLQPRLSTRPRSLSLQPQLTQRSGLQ
Nature of the assay: Binding affinity to human platelet TXA2 receptors as ability to displace binding [3H]SQ-29,548.

For assay [3], the species on record is Homo sapiens. Nature of the assay: Tested for inhibition of platelet aggregation induced by A-23187; Inactive. The class given is functional, organism-based.

As for `[N-]=[N+]=Nc1ccc(CCCC(=O)NCC(=O)NCC2C3CCC(O3)C2C/C=C\CCCC(=O)NNC(=O)CCCC[C@H]2SC[C@H]3NC(=O)N[C@H]32)cc1` (some centres undefined), the outcome in the assay listed under Homo sapiens [1] and in the assay filed under Homo sapiens [3] was inactive. In addition, the IC50 in the assay filed under Homo sapiens [2] stood at 500 nM. For the same compound, the Ki at Thromboxane A2 receptor amounted to 625 nM.
